Assay results: patent US9469650B2, “Melampomagnolide B derivatives” (BOARD OF TRUSTEES OF THE UNIVERSITY OF ARKANSAS, priority 2013, dated 2016)

Experiments:
RXF 393 = assay: panel of 60 human tumor cell lines, growth inhibition (Renal Cancer); settings: Homo sapiens; for GI50: RXF 393, RXF 393; for CC50: RXF 393, read-out: LC50; for IC (TGI): RXF 393, read-out: TGI
OVCAR-8 = assay: panel of 60 human tumor cell lines, growth inhibition (Ovarian Cancer); settings: Homo sapiens; for GI50: OVCAR-8; for CC50: OVCAR-8, read-out: LC50; for IC (TGI): OVCAR-8, read-out: TGI
SK-MEL-28 = assay: panel of 60 human tumor cell lines, growth inhibition (Melanoma); settings: Homo sapiens; for GI50: SK-MEL-28; for CC50: SK-MEL-28, read-out: LC50; for IC (TGI): SK-MEL-28, read-out: TGI
A549/ATCC = assay: panel of 60 human tumor cell lines, growth inhibition (Non-Small Cell Lung Cancer); settings: Homo sapiens; for CC50: A549, read-out: LC50; for IC (TGI): A549, read-out: TGI
SF-295 = assay: panel of 60 human tumor cell lines, growth inhibition (CNS Cancer); settings: Homo sapiens; for GI50: SF-295; for CC50: SF-295, read-out: LC50; for IC (TGI): SF-295, read-out: TGI
SK-MEL-2 = assay: panel of 60 human tumor cell lines, growth inhibition (Melanoma); settings: Homo sapiens; for GI50: SK-MEL-2; for CC50: SK-MEL-2, read-out: LC50; for IC (TGI): SK-MEL-2, read-out: TGI
OVCAR-3 = assay: panel of 60 human tumor cell lines, growth inhibition (Ovarian Cancer); settings: for GI50 / Percent Growth: OVCAR-3; for CC50: OVCAR-3, read-out: LC50
NCI-H322M = assay: panel of 60 human tumor cell lines, growth inhibition (Non-Small Cell Lung Cancer); settings: Homo sapiens; for CC50: read-out: LC50; for IC (TGI): read-out: TGI
SK-MEL-5 = assay: panel of 60 human tumor cell lines, growth inhibition (Melanoma); settings: Homo sapiens; for GI50: SK-MEL-5; for CC50: SK-MEL-5, read-out: LC50; for IC (TGI): SK-MEL-5, read-out: TGI
K-562 = assay: panel of 60 human tumor cell lines, growth inhibition (Leukemia); settings: for CC50: K562, read-out: LC50; for TGI / Percent Growth: K-562
LOX IMVI = assay: panel of 60 human tumor cell lines, growth inhibition (Melanoma); settings: Homo sapiens; for CC50: read-out: LC50; for IC (TGI): read-out: TGI
BT-549 = assay: panel of 60 human tumor cell lines, growth inhibition (Breast Cancer); settings: Homo sapiens; for GI50: BT-549; for CC50: BT-549, read-out: LC50; for IC (TGI): BT-549, read-out: TGI
U251 = assay: panel of 60 human tumor cell lines, growth inhibition (CNS Cancer); settings: Homo sapiens; for GI50: U-251; for CC50: U-251, read-out: LC50; for IC (TGI): U-251, read-out: TGI
DU-145 = assay: panel of 60 human tumor cell lines, growth inhibition (Prostate Cancer); settings: Homo sapiens; for GI50: DU-145; for CC50: DU-145, read-out: LC50; for IC (TGI): DU-145, read-out: TGI
HOP-62 = assay: panel of 60 human tumor cell lines, growth inhibition (Non-Small Cell Lung Cancer); settings: Homo sapiens; for GI50: HOP-62; for CC50: HOP-62, read-out: LC50
OVCAR-5 = assay: panel of 60 human tumor cell lines, growth inhibition (Ovarian Cancer); settings: Homo sapiens; for GI50: OVCAR-5; for CC50: OVCAR-5, read-out: LC50; for IC (TGI): OVCAR-5, read-out: TGI
SK-OV-3 = assay: as above; settings: Homo sapiens; for GI50: SK-OV-3; for CC50: SK-OV-3, read-out: LC50; for IC (TGI): SK-OV-3, read-out: TGI

`C=C1C(=O)O[C@H]2[C@H]1CC/C(COC(=O)NCCN1CCOCC1)=C\CC[C@@]1(C)O[C@@H]21` [JVM 57, ((1aR,7aS,10aS,10bS,E)-1a-methyl-8-methylene-9-oxo-1a,2,3,6,7,7a,8,9,10a,10b-decahydrooxireno[2′,3′:9,10]-cyclodeca[1,2-b]furan-5-yl)-methyl(2-morpholinoethyl)carbamate] was tested, and the GI50 (RXF 393) was 3 µM, the GI50 (RXF 393; 5-dose assay) was 3 µM and the CC50 (RXF 393) was 41 µM. The IC (TGI) (RXF 393) was 11.9 µM, the GI50 (OVCAR-8) was 12.7 µM and the CC50 (OVCAR-8) was over 100 µM. It also gave an IC (TGI) (OVCAR-8) of 36.8 µM, a GI50 (SK-MEL-28) of 10.5 µM and a CC50 (SK-MEL-28) of 47.2 µM. The IC (TGI) (SK-MEL-28) was 22.2 µM, the GI50 (A549/ATCC; A549) was 28.5 µM and the CC50 (A549/ATCC) was over 100 µM. It also gave an IC (TGI) (A549/ATCC) of over 100 µM, a GI50 (SF-295) of over 100 µM and a CC50 (SF-295) of over 100 µM. It also gave an IC (TGI) (SF-295) of over 100 µM, a GI50 (SK-MEL-2) of 13.2 µM and a CC50 (SK-MEL-2) of 65.5 µM. For the same compound, the IC (TGI) (SK-MEL-2) was 29.4 µM, the GI50 (OVCAR-3; Homo sapiens) was 6.2 µM and the CC50 (OVCAR-3; Homo sapiens) was 44.1 µM. The IC (TGI) (OVCAR-3; Homo sapiens, OVCAR-3, read-out: TGI) was 18.7 µM, the “Percent Growth” value (OVCAR-3; Log10 Concentration −4.0) was −98% and the “Percent Growth” value (OVCAR-3; Log10 Concentration −5.0) was 37%. For the same compound, the “Percent Growth” value (OVCAR-3; Log10 Concentration −6.0) was 101%, the “Percent Growth” value (OVCAR-3; Log10 Concentration −7.0) was 109% and the “Percent Growth” value (OVCAR-3; Log10 Concentration −8.0) was 109%. For the same compound, the GI50 (NCI-H322M) was 37.9 µM, the CC50 (NCI-H322M) was over 100 µM and the IC (TGI) (NCI-H322M) was over 100 µM. It also gave a GI50 (SK-MEL-5) of 12.7 µM, a CC50 (SK-MEL-5) of 50.9 µM and an IC (TGI) (SK-MEL-5) of 25.4 µM. The GI50 (K-562; Homo sapiens, K562) was 3.37 µM, the CC50 (K-562; Homo sapiens) was over 100 µM and the TGI (K-562) was 2.88E−5. For the same compound, the “Percent Growth” value (K-562; Log10 Concentration −4.0) was −16%, the “Percent Growth” value (K-562; Log10 Concentration −5.0) was 14% and the “Percent Growth” value (K-562; Log10 Concentration −6.0) was 90%. The “Percent Growth” value (K-562; Log10 Concentration −7.0) was 99%, the “Percent Growth” value (K-562; Log10 Concentration −8.0) was 100% and the GI50 (LOX IMVI) was 4.84 µM. It also gave a GI50 (LOX IMVI; 5-dose assay) of 4.84 µM, a CC50 (LOX IMVI) of 47 µM and an IC (TGI) (LOX IMVI) of 17.5 µM. The GI50 (BT-549) was 4.99 µM, the CC50 (BT-549) was 49.3 µM and the IC (TGI) (BT-549) was 17.6 µM. For the same compound, the GI50 (U251) was 42.9 µM, the CC50 (U251) was over 100 µM and the IC (TGI) (U251) was over 100 µM. The GI50 (DU-145) was 3.74 µM, the CC50 (DU-145) was 37 µM and the IC (TGI) (DU-145) was 13.3 µM. For the same compound, the GI50 (HOP-62) was 27.4 µM, the CC50 (HOP-62) was over 100 µM and the IC (TGI) (HOP-62; HOP-62, read-out: TGI) was 53 µM. It also gave a GI50 (OVCAR-5) of 15.7 µM, a CC50 (OVCAR-5) of 78.5 µM and an IC (TGI) (OVCAR-5) of 35.2 µM. For the same compound, the GI50 (SK-OV-3) was 48.5 µM, the CC50 (SK-OV-3) was over 100 µM and the IC (TGI) (SK-OV-3) was over 100 µM.
Work on `C=C1C(=O)O[C@H]2[C@H]1CC/C(COC(=S)n1ccnc1)=C\CC[C@@]1(C)O[C@@H]21` [JVM 66] yielded a GI50 (RXF 393; NCI five dose) of 3.08 µM, a CC50 (RXF 393) of 57.4 µM and an IC (TGI) (RXF 393) of 11.4 µM. The GI50 (OVCAR-8) was 11.4 µM, the CC50 (OVCAR-8) was over 100 µM and the IC (TGI) (OVCAR-8) was over 100 µM. The GI50 (SK-MEL-28) was 15.7 µM, the CC50 (SK-MEL-28) was 99.3 µM and the IC (TGI) (SK-MEL-28) was 39.5 µM. It also gave a CC50 (A549/ATCC) of over 100 µM, an IC (TGI) (A549/ATCC) of 106 µM and a GI50 (SF-295) of 45 µM. For the same compound, the CC50 (SF-295) was over 100 µM, the IC (TGI) (SF-295) was 106 µM and the GI50 (SK-MEL-2) was 16.4 µM. The CC50 (SK-MEL-2) was 93 µM, the IC (TGI) (SK-MEL-2) was 39.6 µM and the GI50 (OVCAR-3; Homo sapiens) was 10.4 µM. For the same compound, the CC50 (OVCAR-3; Homo sapiens) was 49.2 µM, the “Percent Growth” value (OVCAR-3; Log10 Concentration −4.0) was −96% and the “Percent Growth” value (OVCAR-3; Log10 Concentration −5.0) was 53%. For the same compound, the “Percent Growth” value (OVCAR-3; Log10 Concentration −6.0) was 103%, the “Percent Growth” value (OVCAR-3; Log10 Concentration −7.0) was 130% and the “Percent Growth” value (OVCAR-3; Log10 Concentration −8.0) was 101%. It also gave a GI50 (NCI-H322M) of 69.5 µM, a CC50 (NCI-H322M) of over 100 µM and an IC (TGI) (NCI-H322M) of 106 µM. The GI50 (SK-MEL-5) was 13.3 µM, the CC50 (SK-MEL-5) was 55.6 µM and the IC (TGI) (SK-MEL-5) was 27.7 µM. For the same compound, the CC50 (K-562; Homo sapiens) was over 100 µM, the “Percent Growth” value (K-562; Log10 Concentration −4.0) was 1% and the “Percent Growth” value (K-562; Log10 Concentration −5.0) was 16%. For the same compound, the “Percent Growth” value (K-562; Log10 Concentration −6.0) was 100%, the “Percent Growth” value (K-562; Log10 Concentration −7.0) was 90% and the “Percent Growth” value (K-562; Log10 Concentration −8.0) was 96%. The TGI (K-562; NCI five dose) was over 1.00E−4, the GI50 (LOX IMVI; NCI five dose) was 3.23 µM and the CC50 (LOX IMVI) was 43.1 µM. The IC (TGI) (LOX IMVI) was 11.8 µM, the GI50 (BT-549) was 18.3 µM and the CC50 (BT-549) was over 100 µM. For the same compound, the IC (TGI) (BT-549) was 68 µM, the GI50 (U251) was 32.5 µM and the CC50 (U251) was over 100 µM. It also gave an IC (TGI) (U251) of over 100 µM, a GI50 (DU-145) of 12.2 µM and a CC50 (DU-145) of 59.1 µM. It also gave an IC (TGI) (DU-145) of 26.9 µM, a GI50 (HOP-62) of 36.5 µM and a CC50 (HOP-62) of over 100 µM. For the same compound, the GI50 (OVCAR-5) was 13.5 µM, the CC50 (OVCAR-5) was 78.1 µM and the IC (TGI) (OVCAR-5) was 1760 µM. For the same compound, the GI50 (SK-OV-3) was 61.4 µM, the CC50 (SK-OV-3) was over 100 µM and the IC (TGI) (SK-OV-3) was over 100 µM.
